Laboratory results taken from PubChem BioAssay AID1404 (The Scripps Research Institute Molecular Screening Center, 2008).
Activity calls are given as the source filed them.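 The calls were made as follows: active = EC50 for STAT3 reporter activation at or below 10 µM; inactive = the rest.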

Each compound was assayed on U3A cells, IL-6 STAT3 luciferase reporter, luminescence (assay: STAT3 activators in IL-6-stimulated reporter cells, dose response, counter-screen for STAT1 activator project, U3A cells, STAT1-deficient, luminescence, IL-6 stimulus (AID 1404)).
CC(=O)COc1ccc2c(C)c(-c3ccccc3)c(=O)oc2c1 was tested, and the EC50 was > 55.7 µM (inactive).
With Clc1ccc(-n2ncc3c(N4CCCC4)ncnc32)cc1 the EC50 was > 55.7 µM (inactive).
Nc1ccccc1Nc1cc(-c2ccccc2)[nH]n1 was tested, and the EC50 was > 55.7 µM (inactive).
With O=C(O)c1ccccc1C(=O)Nc1ccc(-c2csc(-c3ccccc3)n2)cc1 the EC50 was > 55.7 µM (inactive).
CCOC(=O)CSc1nc(-c2ccncc2)ccc1C#N was tested, and the EC50 was > 55.7 µM (inactive).
In the case of Cc1nc(-c2ccc(NC(=O)c3ccccc3C)cc2)cs1, the EC50 is reported as > 55.7 µM (inactive).
With Cc1ccc(/C=C/C(=O)N2CCCC(C)C2)cc1 (stereo not drawn) the EC50 was > 55.7 µM (inactive).
With COc1ccc2[nH]c3c(c2c1)CCn1c-3nc2ccccc2c1=O the EC50 was > 55.7 µM (inactive).
O=C(/C=C/Nc1ccc(F)cc1)c1ccc(Br)cc1 was tested, and the EC50 was > 55.7 µM (inactive).
O=C(Nc1cccc(Cl)c1)c1ccc2c(=O)n3c(nc2c1)CCCCC3 was tested, and the EC50 was > 55.7 µM (inactive).
With Cc1cc(C(=O)NCCC2=CCCCC2)c(C)o1 the EC50 was > 55.7 µM (inactive).
For COc1ccc(-c2cc3ncc(-c4ccccc4)c(N)n3n2)cc1, the EC50 was > 55.7 µM (inactive).
For COc1cccc(N/C=C/C(=O)c2ccc(Cl)cc2)c1, the EC50 was > 55.7 µM (inactive).
For NC(=O)Cc1ccc2sc(-c3ccccc3)nc2c1, the EC50 was > 55.7 µM (inactive).
With CCOC(=O)c1cnc2c(-c3ccccc3)cnn2c1N the EC50 was > 55.7 µM (inactive).
CCOC(=O)c1ccc2nc(NC(C)=O)sc2c1 was tested, and the EC50 was > 55.7 µM (inactive).
For CCOC(=O)/C(C#N)=C/c1cc(C)n(-c2ccccc2)c1C, the EC50 was > 55.7 µM (inactive).
CC(=O)c1cccc(N/C=C\C(=O)c2ccc(C)cc2)c1 was tested, and the EC50 was > 55.7 µM (inactive).
In the case of O=C(NC(=S)Nc1ccccn1)c1ccc([N+](=O)[O-])cc1, the EC50 is reported as > 55.7 µM (inactive).
Cc1ccc(-c2cc(N)n(-c3ccccc3)n2)cc1 was tested, and the EC50 was > 55.7 µM (inactive).
COc1ccc(-c2csc(N3C(=O)CNC3=S)n2)cc1 was tested, and the EC50 was > 55.7 µM (inactive).
With Cc1nc(-c2ccc(NC(=O)c3ccccc3Br)cc2)cs1 the EC50 was > 55.7 µM (inactive).
With Cc1ncsc1C(=O)Nc1nc2c(s1)CCCC2 the EC50 was > 55.7 µM (inactive).
O=C(/C=C/c1cccc(F)c1)N1CCc2ccccc21 was tested, and the EC50 was > 55.7 µM (inactive).
O=C(Cn1cnc2ccccc2c1=O)c1ccc(Cl)cc1 was tested, and the EC50 was > 55.7 µM (inactive).
For O=C(OCc1csc(-c2ccccc2)n1)c1cccs1, the EC50 was > 55.7 µM (inactive).
CC(=O)Nc1ccccc1C(=O)OCc1cccc(F)c1 was tested, and the EC50 was > 55.7 µM (inactive).
In the case of CN1C(=O)/C(=C/C=C2\SCCN2C)SC1=S, the EC50 is reported as > 55.7 µM (inactive).
With Cc1ccc(C(=O)/C=C/Nc2cccc([N+](=O)[O-])c2)o1 the EC50 was > 55.7 µM (inactive).
With Nc1ccc2nn(-c3ccccc3)nc2c1 the EC50 was > 55.7 µM (inactive).
For Nc1ncc(-c2cc3ccccc3oc2=O)s1, the EC50 was > 55.7 µM (inactive).
CC(C)(C)N=C1NN=C(c2cc3ccccc3o2)CS1 was tested, and the EC50 was > 55.7 µM (inactive).
C=CCNC(=S)NNC(=O)COc1ccc2cc(Br)ccc2c1 was tested, and the EC50 was > 55.7 µM (inactive).
In the case of c1csc(C2=NNC(=NC3CCCCC3)SC2)c1, the EC50 is reported as > 55.7 µM (inactive).
For COc1ccc2nc(Nc3nc(C)c(C(C)=O)s3)sc2c1, the EC50 was > 55.7 µM (inactive).
Cc1ccc(C(=O)N2CCc3ccccc32)o1 was tested, and the EC50 was > 55.7 µM (inactive).
For O=C(CCc1nnc(CCCc2ccccc2)o1)N1CCCCCC1, the EC50 was > 55.7 µM (inactive).
With CC(=O)NC(=S)Nc1sc2c(c1C#N)CCCCC2 the EC50 was > 55.7 µM (inactive).
For Cc1ccc(-c2cc3nc(C)cc(NCc4ccco4)n3n2)cc1, the EC50 was > 55.7 µM (inactive).
For Cc1nc2ccc(-c3nc4ccccc4o3)cc2[nH]1, the EC50 was > 55.7 µM (inactive).
For COc1ccc(/C=C/C(=O)Nc2ccccc2)cc1OC, the EC50 was > 55.7 µM (inactive).
In the case of O=C(Nc1ccc2c(c1)OCCO2)c1ccc(Br)s1, the EC50 is reported as > 55.7 µM (inactive).
In the case of Nc1nc2ccc(-c3nc4ccccc4o3)cc2s1, the EC50 is reported as > 55.7 µM (inactive).
With CCCCOC(=O)Nc1nc2ccccc2s1 the EC50 was > 55.7 µM (inactive).
Nc1ccccc1C(=O)OCC(=O)N1CCc2ccccc21 was tested, and the EC50 was > 55.7 µM (inactive).
O=C(c1ccccc1)c1ccc(N2CCCC2)cc1 was tested, and the EC50 was > 55.7 µM (inactive).
C=CCNc1nc(-c2cc3ccccc3o2)cs1 was tested, and the EC50 was > 55.7 µM (inactive).
With CN(C)c1ccnc2sc(C(=O)c3ccccc3)c(N)c12 the EC50 was > 55.7 µM (inactive).
O=C(/C(C=Nc1ccc(F)cc1)=C(/O)c1ccco1)C(F)(F)F was tested, and the EC50 was > 55.7 µM (inactive).
For Clc1ccc(-n2ncc3c(NCC4CCCO4)ncnc32)cc1 (stereo not drawn), the EC50 was > 55.7 µM (inactive).
Cc1cccc(Nc2n[nH]c(C)c2[N+](=O)[O-])c1 was tested, and the EC50 was > 55.7 µM (inactive).
With CCCOC(=O)c1ccc(-c2ccc(C=O)o2)cc1 the EC50 was > 55.7 µM (inactive).
In the case of COc1ccc(-c2cc(C)nc3c(-c4ccccc4)cnn23)cc1, the EC50 is reported as > 55.7 µM (inactive).
